Laboratory results taken from the NIST ThermoML archive (doi:10.1021/je700260f).

Conditions: Liquid, Vibrating tube method

FC(C(F)(F)F)C(F)(F)F [1,1,1,2,3,3,3-heptafluoropropane]
Conditions	mass density [kg/m3]
333.14 K, 28231 kPa	1431.3
333.14 K, 28261 kPa	1431.4
333.14 K, 28291 kPa	1431.5
333.14 K, 28321 kPa	1431.5
333.14 K, 28346 kPa	1431.8
333.14 K, 28383 kPa	1431.9
333.14 K, 28426 kPa	1432.1
333.14 K, 28453 kPa	1432.3
333.14 K, 29468 kPa	1436.5
333.14 K, 29504 kPa	1436.7
333.14 K, 29539 kPa	1436.8
333.14 K, 29570 kPa	1437.1
333.14 K, 29596 kPa	1437.2
333.14 K, 29621 kPa	1437.1
333.14 K, 29660 kPa	1437.3
333.14 K, 29724 kPa	1437.5
333.14 K, 29789 kPa	1437.8
333.14 K, 29825 kPa	1437.9
333.14 K, 29848 kPa	1438.1
333.14 K, 29883 kPa	1438.3
333.14 K, 29910 kPa	1438.4
333.14 K, 29946 kPa	1438.5
333.14 K, 29982 kPa	1438.6
333.14 K, 30013 kPa	1438.8
333.14 K, 30054 kPa	1439.1
333.14 K, 30122 kPa	1439.3
333.14 K, 30215 kPa	1439.6
333.14 K, 30241 kPa	1439.8
333.14 K, 30272 kPa	1440
333.14 K, 30958 kPa	1442.6
333.14 K, 31004 kPa	1442.8
333.14 K, 31030 kPa	1443
333.14 K, 31064 kPa	1443.2
333.14 K, 31094 kPa	1443.2
333.14 K, 31125 kPa	1443.4
333.14 K, 31155 kPa	1443.4
333.14 K, 31190 kPa	1443.7
333.14 K, 31220 kPa	1443.6
333.14 K, 31247 kPa	1443.9
333.14 K, 31285 kPa	1444
333.14 K, 31317 kPa	1444
333.14 K, 31349 kPa	1444.1
333.14 K, 31380 kPa	1444.4
333.14 K, 31423 kPa	1444.5
333.14 K, 31458 kPa	1444.7
333.14 K, 31490 kPa	1444.8
333.14 K, 31523 kPa	1445
333.14 K, 31566 kPa	1445.1
333.14 K, 31598 kPa	1445.3
333.14 K, 31630 kPa	1445.3
333.14 K, 31662 kPa	1445.5
333.14 K, 31694 kPa	1445.6
333.14 K, 31730 kPa	1445.8
333.14 K, 31758 kPa	1445.8
333.14 K, 31790 kPa	1446
333.14 K, 31827 kPa	1446.1
333.14 K, 31857 kPa	1446.3
333.14 K, 31894 kPa	1446.5
333.14 K, 31930 kPa	1446.5
333.14 K, 31957 kPa	1446.6
333.14 K, 32003 kPa	1446.7
333.14 K, 32036 kPa	1446.9
333.14 K, 32069 kPa	1447
333.14 K, 32103 kPa	1447.2
333.14 K, 32135 kPa	1447.4
333.14 K, 32168 kPa	1447.4
333.14 K, 32197 kPa	1447.6
333.14 K, 32240 kPa	1447.7
333.14 K, 32275 kPa	1447.7
333.14 K, 32318 kPa	1448
333.14 K, 32349 kPa	1448.2
333.14 K, 32394 kPa	1448.3
333.14 K, 32422 kPa	1448.5
333.14 K, 32458 kPa	1448.6
333.14 K, 32486 kPa	1448.7
333.14 K, 32524 kPa	1448.8
333.14 K, 32553 kPa	1448.9
333.14 K, 32585 kPa	1449.1
333.14 K, 32614 kPa	1449.2
333.14 K, 32648 kPa	1449.3
333.14 K, 32678 kPa	1449.5
333.14 K, 32707 kPa	1449.5
333.14 K, 32736 kPa	1449.7
333.14 K, 32768 kPa	1449.9
333.14 K, 32811 kPa	1449.9
333.14 K, 32840 kPa	1450.1
333.14 K, 32883 kPa	1450.3
333.14 K, 33794 kPa	1453.9
333.14 K, 33829 kPa	1453.8
333.14 K, 33872 kPa	1453.9
333.14 K, 33907 kPa	1454.1
333.14 K, 34179 kPa	1455.3
333.14 K, 34220 kPa	1455.1
333.14 K, 34250 kPa	1455.4
333.14 K, 34294 kPa	1455.5
333.14 K, 34336 kPa	1455.9
333.14 K, 34376 kPa	1455.8
333.14 K, 34409 kPa	1456
333.15 K, 6283 kPa	1289.9
333.15 K, 6309 kPa	1290.2
333.15 K, 6346 kPa	1290.5
333.15 K, 6386 kPa	1291
